# Reference: patent US20260258084A1, “New Peptides as Selective IL-23 Receptor Antagonists” (Sanofi, priority 2022, published 2026)
# Starred links: 1 amine or outer side, 2 acyl side, 3 side chain; linkers in the order of their positions; H or OH if unused. Positions of bridges follow the written chain, without caps; N, C: chain ends. Non-standard residues stand in square brackets, D forms with d. Residues, ends and D or L forms follow the SMILES beside them. *: point of attachment. X3 = CN(CCCCC(=O)N[C@@H](CS[*:2])C(=O)[*:1])[*:3]; Trp(7-Me) = Cc1cccc2c(C[C@H](N)C(=O)O)c[nH]c12; X1 = O=C(CCCCN[*:3])N[C@@H](CS[*:2])C(=O)[*:1]; αMeLys(Me2) = CN(C)CCCC[C@](C)(N)C(=O)O; X2 = CN(C)[C@@H](CCCCN[*:1])C(=O)[*:2]; 2Nal = N[C@@H](Cc1ccc2ccccc2c1)C(=O)O; AEF = NCCOc1ccc(C[C@H](N)C(=O)O)cc1; 3Pal = N[C@@H](Cc1cccnc1)C(=O)O; αMeL = CC(C)C[C@](C)(N)C(=O)O; Suc = O=C(CCC(=O)[*:2])[*:1]; Thp = NC1(C(=O)O)CCOCC1; Me2NCH2CH2 = CN(C)CC*; Aib = CC(C)(N)C(=O)O; Ava = NCCCCC(=O)O; Sar = CNCC(=O)O
# Assays:
# [1] = target: T1, human interleukin-23 receptor (recombinant human IL-23R-Fc chimera) (Homo sapiens, UniProt Q5VWK5); test: Human ELISA IL23/IL23R (assay for specific human IL23R antagonists); format: binding; settings: Table 10; read-out: Human ELISA IL23/IL23R IC50
# T1 construct: Fc (IgG Fc fusion)
# How it was run: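 Competition format: peptide dilutions compete for IL23R-Fc chimera (0.1 μg/ml final, 60 min, room temperature) binding to immobilized human IL23 coated at […] overnight at 4 °C. Read-out is fluorogenic HRP signal from goat anti-hu-IgG1 detecting captured receptor.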
# [2] = system: IL-23 induced STAT3 signaling in HEK-Blue™ IL-23 cells; test: IL-23 induced STAT3 signaling in HEK-Blue IL-23 cells (SEAP reporter); format: cell-based; settings: human IL23 0.25 ng/ml, read-out: pSTAT3
# How it was run: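 Secreted SEAP, read at OD 620-655 nm after 45 min QUANTI-Blue development, reports STAT3 activation. Beforehand, cells were exposed to peptide dilutions for 60 min at 37 °C and then to 0.25 ng/ml final human IL-23 overnight, at 10,000 cells/well.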
# [3] = Chemical stability assessment of peptides (relative purity loss); format: physicochemical; settings: 24 hours at 37° C.; for Chemical stability (relative purity loss) Buffer pH 1.2: 50 mM HCl pH 1.2 + acetonitrile (1:1); for Chemical stability (relative purity loss) Buffer pH 6.5: 50 mM phosphate buffer pH 6.5 + acetonitrile (1:1); for Chemical stability (relative purity loss) Buffer pH 7.4: 50 mM phosphate buffer pH 7.4 + acetonitrile (1:1)
# How it was run: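 Peptide solutions at 1 mg/ml (purity-corrected) in 1:1 acetonitrile with 50 mM HCl pH 1.2, or 50 mM phosphate pH 6.5 or pH 7.4, held 24 hours at 2° C. and 37° C. Supernatants analysed by UHPLC-UV; relative purity loss taken as percent drop in peak-area purity from 0 to 24 hours at 37° C.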
# Pepsin = system: T2, Pepsin; test: Protease stability in simulated gastric fluid (Pepsin-SGF, FaSSGF); format: in vitro ADME; settings: simulated gastric fluid with pepsin (Pepsin-SGF), 60 min, 1 μM peptide, 37° C., read-out: FaSSGF 60 (min), remaining percent of peptide
# T2 construct: purchased Merck Millipore
# How it was run: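 LCMS/MS peak areas, normalised to the time-0 sample as 100%, give percent remaining. Conditions: 37° C incubation of 1 μM final peptide in simulated gastric fluid with pepsin; ethanol/0.1% HCOOH quench at 0, 60, 120, 240 min.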
# Pancreatin = test: Protease stability in simulated intestinal fluid (Pancreatin-SIF, FaSSIF); format: in vitro ADME; settings: 1 μM peptide, 37° C.; for remaining at 1 h, 1 µM: 60 min, read-out: FaSSIF 60 (min), remaining percent of peptide; for remaining at 2 h, 1 µM: 120 min, read-out: FaSSIF 120 (min), remaining percent of peptide; for remaining at 4 h, 1 µM: 240 min, read-out: FaSSIF 240 (min), remaining percent of peptide
# How it was run: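 LC-MS/MS peak areas at 0, 60, 120 and 240 min, normalised to time 0 as 100%, give percent remaining. Reactions used 1 μM final peptide at 37° C in pancreatin-SIF (1 mg pancreatin in 10 mL SIF concentrate) and were stopped with ethanol containing 0.1% HCOOH.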
smiles,measurement,setting,value
CC(=O)N[C@H]1CCCCNC(=O)[C@@H]2CSSC[C@H](NC(=O)[C@H](CCC(N)=O)NC(=O)[C@H](Cc3c[nH]c4ccccc34)NC1=O)C(=O)N[C@@H](Cc1ccc(OCCN)cc1)C(=O)N[C@@H](Cc1ccc3ccccc3c1)C(=O)N[C@@](C)(CC(C)C)C(=O)N[C@H](C(=O)N[C@@H](C)C(=O)NCC(N)=O)CCC(=O)N(C)CCCCC(=O)N2 [compound 18] (Ac-KWQC[AEF][2Nal][αMeL]EAG-NH2; linker 1-4-8 via X3),IC50,[1],0.71 nM
same,IC50,[2],69.5 nM
same,Chemical stability (relative purity loss) Buffer pH 1.2,[3],11.4%
same,Chemical stability (relative purity loss) Buffer pH 6.5,[3],0.1%
same,Chemical stability (relative purity loss) Buffer pH 7.4,[3],0.0%
same,"remaining at 1 h, 1 µM",Pepsin,60%
same,"remaining at 1 h, 1 µM",Pancreatin,81%
same,"remaining at 2 h, 1 µM",Pancreatin,76%
same,"remaining at 4 h, 1 µM",Pancreatin,76%
CC(C)C[C@]1(C)NC(=O)[C@H](Cc2ccc3ccccc3c2)NC(=O)[C@H](Cc2ccc(OCCN(C)C)cc2)NC(=O)[C@@H]2CSSC[C@H](NC(=O)CCCCNC(=O)CC[C@@H](C(=O)N[C@@H](CC(N)=O)C(=O)N[C@@H](CC(N)=O)C(N)=O)NC1=O)C(=O)N[C@@H](CC(N)=O)C(=O)N[C@@H]([C@@H](C)O)C(=O)N[C@@H](Cc1c[nH]c3ccccc13)C(=O)N[C@@H](CCC(N)=O)C(=O)N2 [compound 27] ([Ava]CNTWQCY(Me2NCH2CH2)[2Nal][αMeL]ENN-NH2; disulfide 2-7; lactam N-11),IC50,[1],0.4 nM
same,IC50,[2],1.71 nM
same,Chemical stability (relative purity loss) Buffer pH 1.2,[3],23.8%
same,Chemical stability (relative purity loss) Buffer pH 6.5,[3],0.0%
same,Chemical stability (relative purity loss) Buffer pH 7.4,[3],8.7%
same,"remaining at 1 h, 1 µM",Pepsin,82%
same,"remaining at 1 h, 1 µM",Pancreatin,81%
same,"remaining at 2 h, 1 µM",Pancreatin,82%
same,"remaining at 4 h, 1 µM",Pancreatin,73%
CC(=O)N[C@H]1CCCCNC(=O)[C@@H]2CSSC[C@H](NC(=O)[C@H](CCC(N)=O)NC(=O)[C@H](Cc3c[nH]c4ccccc34)NC1=O)C(=O)N[C@@H](Cc1ccc(OCCN(C)C)cc1)C(=O)N[C@@H](Cc1ccc3ccccc3c1)C(=O)NC1(CCOCC1)C(=O)N[C@H](C(=O)N[C@@H](C)C(=O)N[C@H](CC(C)C)C(N)=O)CCC(=O)NCCCCC(=O)N2 [compound 33] (Ac-KWQCY(Me2NCH2CH2)[2Nal][Thp]EA[dL]-NH2; linker 1-4-8 via X1),IC50,[1],0.56 nM
same,IC50,[2],53.8 nM
same,Chemical stability (relative purity loss) Buffer pH 1.2,[3],5.9%
same,Chemical stability (relative purity loss) Buffer pH 6.5,[3],0.5%
same,Chemical stability (relative purity loss) Buffer pH 7.4,[3],0.1%
same,"remaining at 1 h, 1 µM",Pepsin,100%
same,"remaining at 1 h, 1 µM",Pancreatin,100%
same,"remaining at 2 h, 1 µM",Pancreatin,100%
same,"remaining at 4 h, 1 µM",Pancreatin,85%
CC(=O)NCCCC[C@@H]1NC(=O)[C@H](Cc2c[nH]c3c(C)cccc23)NC(=O)[C@H]([C@@H](C)O)NC(=O)[C@H](CC(N)=O)NC(=O)[C@@H]2CSSC[C@H](NC1=O)C(=O)N[C@@H](Cc1ccc(OCCN(C)C)cc1)C(=O)N[C@@H](Cc1ccc3ccccc3c1)C(=O)N[C@@](C)(CC(C)C)C(=O)N[C@H](C(=O)N[C@@H](CC(N)=O)C(=O)N[C@@H](Cc1c[nH]cn1)C(N)=O)CCCCNC(=O)CCC(=O)N2 [compound 23] (CNT[Trp(7-Me)]K(Ac)CY(Me2NCH2CH2)[2Nal][αMeL]KNH-NH2; disulfide 1-6; linker N-10 via Suc),IC50,[1],0.26 nM
same,IC50,[2],3.32 nM
same,Chemical stability (relative purity loss) Buffer pH 1.2,[3],11.3%
same,Chemical stability (relative purity loss) Buffer pH 6.5,[3],0.0%
same,Chemical stability (relative purity loss) Buffer pH 7.4,[3],0.0%
same,"remaining at 1 h, 1 µM",Pepsin,69%
same,"remaining at 1 h, 1 µM",Pancreatin,79%
same,"remaining at 2 h, 1 µM",Pancreatin,68%
same,"remaining at 4 h, 1 µM",Pancreatin,67%
CC(=O)N[C@H]1CCCCNC(=O)[C@@H]2CSSC[C@H](NC(=O)[C@H](CCC(N)=O)NC(=O)[C@H](Cc3c[nH]c4ccccc34)NC1=O)C(=O)N[C@@H](Cc1ccc(OCCN)cc1)C(=O)N[C@@H](Cc1ccc3ccccc3c1)C(=O)NC1(CCOCC1)C(=O)N[C@H](C(=O)N[C@@H](CC(N)=O)C(=O)N[C@@H](CC(N)=O)C(N)=O)CCC(=O)N(C)CCCCC(=O)N2 [compound 13] (Ac-KWQC[AEF][2Nal][Thp]ENN-NH2; linker 1-4-8 via X3),IC50,[1],0.61 nM
same,IC50,[2],32 nM
same,Chemical stability (relative purity loss) Buffer pH 1.2,[3],23.3%
same,Chemical stability (relative purity loss) Buffer pH 6.5,[3],0.2%
same,Chemical stability (relative purity loss) Buffer pH 7.4,[3],1.6%
same,"remaining at 1 h, 1 µM",Pepsin,73%
same,"remaining at 1 h, 1 µM",Pancreatin,83%
same,"remaining at 2 h, 1 µM",Pancreatin,70%
same,"remaining at 4 h, 1 µM",Pancreatin,54%
CC(=O)NCCCC[C@@H]1NC(=O)[C@H](Cc2c[nH]c3ccccc23)NC(=O)[C@@H](N(C)C)CCCCNC(=O)[C@@H]2CSSC[C@H](NC1=O)C(=O)N[C@@H](Cc1ccc(OCCN(C)C)cc1)C(=O)N[C@@H](Cc1ccc3ccccc3c1)C(=O)N[C@@](C)(CCCCN(C)C)C(=O)N[C@H](C(=O)N[C@@H](CC(N)=O)C(=O)N[C@@H](Cc1cccnc1)C(=O)N(C)CC(N)=O)CCC(=O)NCCCCC(=O)N2 [compound 36] ([Ava]C[X2]WK(Ac)CY(Me2NCH2CH2)[2Nal][αMeLys(Me2)]EN[3Pal][Sar]-NH2; disulfide 2-6; lactam N-10),IC50,[1],0.5 nM
same,IC50,[2],13.9 nM
same,Chemical stability (relative purity loss) Buffer pH 1.2,[3],2.6%
same,Chemical stability (relative purity loss) Buffer pH 6.5,[3],1.1%
same,Chemical stability (relative purity loss) Buffer pH 7.4,[3],0.9%
same,"remaining at 1 h, 1 µM",Pepsin,95%
same,"remaining at 1 h, 1 µM",Pancreatin,97%
same,"remaining at 2 h, 1 µM",Pancreatin,93%
same,"remaining at 4 h, 1 µM",Pancreatin,92%
CC(=O)NCCCC[C@@H]1NC(=O)[C@H](Cc2c[nH]c3c(C)cccc23)NC(=O)[C@H]([C@@H](C)O)NC(=O)[C@H](CC(N)=O)NC(=O)[C@@H]2CSSC[C@H](NC1=O)C(=O)N[C@@H](Cc1ccc(OCCN(C)C)cc1)C(=O)N[C@@H](Cc1ccc3ccccc3c1)C(=O)NC1(CCOCC1)C(=O)N[C@H](C(=O)N[C@@H](CC(N)=O)C(=O)N[C@@H](Cc1cccnc1)C(N)=O)CCC(=O)NCCCCC(=O)N2 [compound 51] ([Ava]CNT[Trp(7-Me)]K(Ac)CY(Me2NCH2CH2)[2Nal][Thp]EN[3Pal]-NH2; disulfide 2-7; lactam N-11),IC50,[1],0.19 nM
same,IC50,[2],0.05 nM
same,Chemical stability (relative purity loss) Buffer pH 1.2,[3],17.1%
same,Chemical stability (relative purity loss) Buffer pH 6.5,[3],0.2%
same,Chemical stability (relative purity loss) Buffer pH 7.4,[3],0.7%
same,"remaining at 1 h, 1 µM",Pepsin,94%
same,"remaining at 1 h, 1 µM",Pancreatin,92%
same,"remaining at 2 h, 1 µM",Pancreatin,86%
same,"remaining at 4 h, 1 µM",Pancreatin,78%
COc1ccc(C[C@@H]2NC(=O)[C@@H]3CSSC[C@H](NC(=O)CCCCNC(=O)CC[C@@H](C(=O)N[C@@H](CC(N)=O)C(=O)NCC(N)=O)NC(=O)C(C)(C)NC(=O)[C@H](Cc4ccc5ccccc5c4)NC2=O)C(=O)N[C@@H](CC(N)=O)C(=O)N[C@@H]([C@@H](C)O)C(=O)N[C@@H](Cc2c[nH]c4ccccc24)C(=O)N[C@@H](CCC(N)=O)C(=O)N3)cc1 [compound 4] ([Ava]CNTWQCY(Me)[2Nal][Aib]ENG-NH2; disulfide 2-7; lactam N-11),IC50,[1],0.95 nM
same,IC50,[2],34.8 nM
same,Chemical stability (relative purity loss) Buffer pH 1.2,[3],22.4%
same,Chemical stability (relative purity loss) Buffer pH 6.5,[3],0.7%
same,Chemical stability (relative purity loss) Buffer pH 7.4,[3],7.0%
same,"remaining at 1 h, 1 µM",Pepsin,1%
same,"remaining at 1 h, 1 µM",Pancreatin,91%
same,"remaining at 2 h, 1 µM",Pancreatin,82%
same,"remaining at 4 h, 1 µM",Pancreatin,73%
